The source of these data is paper PMC4040332 (ChemMedChem, 2013).

Series [1] has as its system B. subtilis DB104. Nature of the series: Inhibition of bacterial growth. As to conditions: Bacillus subtilis, DB104, 24 h, read-out: MIC50 B. subtilis.
The test system of series [2] is GR from B. anthracis (RacE2). It counts as biochemical. To be noted: RacE2, Figure 1.
For series [3], the system named is GR from B. anthracis (RacE1). Format: biochemical. To be noted: RacE1, Figure 1.
The target of series [4] is GR from B. subtilis (Bacillus subtilis, UniProt P94556).
GR from B. subtilis, sequence (P94556 whole entry): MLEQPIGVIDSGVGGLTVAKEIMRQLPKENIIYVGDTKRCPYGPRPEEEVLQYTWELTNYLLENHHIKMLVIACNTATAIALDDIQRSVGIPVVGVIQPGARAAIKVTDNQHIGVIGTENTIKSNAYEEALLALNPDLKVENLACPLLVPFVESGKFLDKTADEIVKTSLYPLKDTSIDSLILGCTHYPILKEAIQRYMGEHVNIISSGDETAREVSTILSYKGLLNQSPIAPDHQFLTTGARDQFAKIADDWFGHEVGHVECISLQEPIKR
For series [5], the system named is GR from F. tularensis (MurI). It counts as biochemical. To be noted: Figure 1.

In general, MIC50 refers to an inhibitory concentration at the 50% level, which refers to growth in some studies and to a panel of isolates in others.

Converted amounts (≈) assume the structure as drawn.

As to `O=S(=O)(O)c1nc2ccccc2[nH]1` [Compound 2, 1H-benzimidazole-2-sulfonic acid], the MIC50 in series [1] came to 720 ± 60 µg/mL (≈ 3.63 mM). Also, the “potency compared with GR from B. subtilis” value in series [2], in series [3] and in series [5] was “equal potency” each time. In addition, the “LE (ligand efficiency)” value in series [4] (Ki converted to binding energy, divided by number of non-hydrogen atoms) was 0.53 kcal/mol/atom. For the same compound, the “LiPE (lipophilic efficiency)” value in series [4] (from log(Ki) and logP calculated with MarvinSketch) is given as 5.3.
